# Results: US11780826B2 (Amgen Inc., priority 2017, dated 2023)
# System: Bovine cardiac myofibrils
# Assay: In vitro model of dose-dependent myofibril ATPase modulation (AC1.4, pyruvate kinase/lactate dehydrogenase-coupled ATPase assay at pCa25)
# Type: biochemical
# Settings: concentration at which ATPase activity was 1.4-fold higher than the bottom of the dose curve, mean of a minimum of two independent tests
# How it was run: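 Compound dilutions were premixed with myofibrils, coupling enzymes, EGTA and CaCl2, then the reaction was started with an equal volume carrying ATP (final 1 mM), NADH and PEP. ATP turnover was followed at 340 nm, and dose responses were fit to a four-parameter equation.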
row,SMILES,AC1.4 [µM]
1,"CS(=O)(=O)c1cncc(C(=O)N2CCC[C@@H]2C(=O)N[C@@H](c2cc(F)c(Cl)cc2F)C2CC2)c1 [Example 362, N-((R)-(4-chloro-2,5-difluorophenyl)(cyclopropyl)methyl)-1-((5-(methylsulfonyl)-3-pyridinyl)carbonyl)-D-prolinamide]",1.0375
2,"CN(Cc1ccc(C(F)(F)F)cc1)C(=O)[C@H]1CCCN1C(=O)[C@H]1CCCN(S(=O)(=O)N2CC(C#N)C2)C1 [Example 363, 1-(((3S)-1-((3-cyano-1-azetidinyl)sulfonyl)-3-piperidinyl)carbonyl)-N-methyl-N-(4-(trifluoromethyl)benzyl)-D-prolinamide]",1.143
3,"CS(=O)(=O)c1cccc(C(=O)N2C[C@@H](F)C[C@@H]2C(=O)N[C@@H](c2ccc(Cl)c(F)c2)C2COC2)c1 [Example 365, (4S)-N-((R)-(4-chloro-3-fluorophenyl)(3-oxetanyl)methyl)-4-fluoro-1-(3-(methylsulfonyl)benzoyl)-D-prolinamide]",1.139
4,"N#Cc1cccc(C(=O)N2[C@@H](C(=O)N[C@@H](c3ccc(C(F)(F)F)cc3F)C3COC3)C[C@H]3C[C@H]32)c1 [Example 366, (1R,3R,5R)-2-(3-cyanobenzoyl)-N-((R)-(2-fluoro-4-(trifluoromethyl)phenyl)(3-oxetanyl)methyl)-2-azabicyclo[3.1.0]hexane-3-carboxamide]",1.1445
5,"O=C(NCc1ccc(C(F)(F)F)cc1)[C@H]1CCCN1C(=O)[C@H]1CCCN(S(=O)(=O)N2CC(n3cccc3)C2)C1 [Example 367, 1-(((3S)-1-((3-(1H-pyrrol-1-yl)-1-azetidinyl)sulfonyl)-3-piperidinyl)carbonyl)-N-(4-(trifluoromethyl)benzyl)-D-prolinamide]",1.1962
6,"CC1(O)CN(S(=O)(=O)c2cccc(C(=O)N3CCC[C@@H]3C(=O)NCc3ccc(C(F)(F)F)cc3F)c2)C1 [Example 368, N-(2-fluoro-4-(trifluoromethyl)benzyl)-1-(3-((3-hydroxy-3-methyl-1-azetidinyl)sulfonyl)benzoyl)-D-prolinamide]",1.2
7,"O=C(N[C@@H](c1ccc(C(F)(F)F)cc1F)C1CC1)[C@H]1CCCN1C(=O)c1cccc(C2CC2)c1 [Example 369, 1-(3-cyclopropylbenzoyl)-N-((R)-cyclopropyl(2-fluoro-4-(trifluoromethyl)phenyl)methyl)-D-prolinamide]",1.1795
8,"O=C(NCc1ccc(C(F)(F)F)cc1)[C@H]1CCCN1C(=O)[C@H]1CCCN(S(=O)(=O)N2CC(O)(c3ccccc3)C2)C1 [Example 371, 1-(((3S)-1-((3-hydroxy-3-phenyl-1-azetidinyl)sulfonyl)-3-piperidinyl)carbonyl)-N-(4-(trifluoromethyl)benzyl)-D-prolinamide]",1.216
9,"CC(=O)Nc1ccccc1C(=O)N1[C@@H](C(=O)N[C@@H](c2ccc(C(F)(F)F)cc2F)C2CC2)C[C@H]2C[C@H]21 [Example 372, (1R,3R,5R)-2-(2-acetamidobenzoyl)-N-((R)-cyclopropyl(2-fluoro-4-(trifluoromethyl)phenyl)methyl)-2-azabicyclo[3.1.0]hexane-3-carboxamide]",1.2085
10,"N#CC1CN(S(=O)(=O)N2CCC[C@H](C(=O)N3CCC[C@@H]3C(=O)NCc3ccc(C(F)(F)F)cn3)C2)C1 [Example 373, 1-(((3S)-1-((3-cyano-1-azetidinyl)sulfonyl)-3-piperidinyl)carbonyl)-N-((5-(trifluoromethyl)-2-pyridinyl)methyl)-D-prolinamide]",1.2258
11,"O=C(N[C@@H](c1cc(F)c(Cl)cc1F)C1CC1)[C@H]1C[C@H]2C[C@H]2N1C(=O)c1cncc(C(F)(F)F)c1 [Example 374, (1R,3R,5R)-N-((R)-(4-chloro-2,5-difluorophenyl)(cyclopropyl)methyl)-2-((5-(trifluoromethyl)-3-pyridinyl)carbonyl)-2-azabicyclo[3.1.0]hexane-3-carboxamide]",1.2265
12,"CS(=O)(=O)c1cccc(C(=O)N2[C@@H](C(=O)N[C@@H](c3ccc(C(F)(F)F)cc3)C3COC3)C[C@H]3C[C@H]32)c1 [Example 375, (1R,3R,5R)-2-(3-(methylsulfonyl)benzoyl)-N-((R)-3-oxetanyl(4-(trifluoromethyl)phenyl)methyl)-2-azabicyclo[3.1.0]hexane-3-carboxamide]",1.2153
13,"N#CC1CN(S(=O)(=O)c2cccc(C(=O)N3CCC[C@@H]3C(=O)NCc3ncc(Cl)s3)c2)C1 [Example 376, N-((5-chloro-1,3-thiazol-2-yl)methyl)-1-((3-((3-cyano-1-azetidinyl)sulfonyl)phenyl)carbonyl)-D-prolinamide]",1.2296
14,"CS(=O)(=O)c1cccc(C(=O)N2C=CC[C@@H]2C(=O)N[C@@H](c2ccc(C(F)(F)F)cc2F)C2CC2)c1 [Example 377, (2R)—N—((R)-cyclopropyl(2-fluoro-4-(trifluoromethyl)phenyl)methyl)-1-(3-(methylsulfonyl)benzoyl)-2,3-dihydro-1H-pyrrole-2-carboxamide]",1.216
15,"O=C(N[C@@H](c1ccc(C(F)(F)F)cc1F)C1CC1)[C@H]1CCCN1C(=O)c1cccc(Cl)c1 [Example 378, 1-(3-chlorobenzoyl)-N-((R)-cyclopropyl(2-fluoro-4-(trifluoromethyl)phenyl)methyl)-D-prolinamide]",1.227
16,"N#CC1CN(S(=O)(=O)N2CCC[C@H](C(=O)N3CCC[C@@H]3C(=O)NCc3cc(F)cc(C(F)(F)F)c3)C2)C1 [Example 379, 1-(((3S)-1-((3-cyano-1-azetidinyl)sulfonyl)-3-piperidinyl)carbonyl)-N-(3-fluoro-5-(trifluoromethyl)benzyl)-D-prolinamide]",1.237
17,"O=C(NCc1ccc(C(F)(F)F)cc1)[C@H]1CCCN1C(=O)[C@H]1CCCN(S(=O)(=O)N2CC(C(F)(F)F)C2)C1 [Example 380, 1-(((3S)-1-((3-(trifluoromethyl)-1-azetidinyl)sulfonyl)-3-piperidinyl)carbonyl)-N-(4-(trifluoromethyl)benzyl)-D-prolinamide]",1.257
18,"Cc1cc(F)ccc1CNC(=O)[C@H]1CCCN1C(=O)[C@H]1CCCN(S(=O)(=O)N2CC(C#N)C2)C1 [Example 381, 1-(((3S)-1-((3-cyano-1-azetidinyl)sulfonyl)-3-piperidinyl)carbonyl)-N-(4-fluoro-2-methylbenzyl)-D-prolinamide]",1.268
19,"CCS(=O)(=O)c1cccc(C(=O)N2[C@@H](C(=O)N[C@@H](c3ccc(C(F)(F)F)cc3F)C3(O)CC3)C[C@H]3C[C@H]32)c1 [Example 382, (1R,3R,5R)-2-(3-(ethylsulfonyl)benzoyl)-N-((S)-(2-fluoro-4-(trifluoromethyl)phenyl)(1-hydroxycyclopropyl)methyl)-2-azabicyclo[3.1.0]hexane-3-carboxamide]",1.232
20,"CCNc1cnc(C)cc1C(=O)N1[C@@H](C(=O)N[C@@H](c2ccc(C(F)(F)F)cc2F)C2CC2)C[C@H]2C[C@H]21 [Example 383, (1R,3R,5R)-N-((R)-cyclopropyl(2-fluoro-4-(trifluoromethyl)phenyl)methyl)-2-((5-(ethylamino)-2-methyl-4-pyridinyl)carbonyl)-2-azabicyclo[3.1.0]hexane-3-carboxamide]",1.2725
21,"O=C(NCc1ccc(C(F)(F)F)cc1)[C@H]1CCCN1C(=O)[C@H]1CCCN(S(=O)(=O)N2CC[C@H](C(F)(F)F)C2)C1 [Example 384, N-(4-(trifluoromethyl)benzyl)-1-(((3S)-1-(((3S)-3-(trifluoromethyl)-1-pyrrolidinyl)sulfonyl)-3-piperidinyl)carbonyl)-D-prolinamide]",1.295
22,"N#CC1CN(S(=O)(=O)c2cccc(C(=O)N3CCC[C@@H]3C(=O)N[C@@H](CO)c3cccc(C(F)(F)F)c3)c2)C1 [Example 386, 1-(3-((3-cyano-1-azetidinyl)sulfonyl)benzoyl)-N-((1R)-2-hydroxy-1-(3-(trifluoromethyl)phenyl)ethyl)-D-prolinamide]",1.3335
23,"COc1cc(CNC(=O)[C@H]2CCCN2C(=O)[C@H]2CCCN(S(=O)(=O)N3CC(C#N)C3)C2)ccc1C [Example 387, 1-(((3S)-1-((3-cyano-1-azetidinyl)sulfonyl)-3-piperidinyl)carbonyl)-N-(3-methoxy-4-methylbenzyl)-D-prolinamide]",1.34
24,"COC[C@H](NC(=O)[C@H]1CCCN1C(=O)[C@H]1CCCN(S(=O)(=O)N2CC(C#N)C2)C1)c1cccc(C(F)(F)F)c1 [Example 388, 1-(((3S)-1-((3-cyano-1-azetidinyl)sulfonyl)-3-piperidinyl)carbonyl)-N-((1R)-2-methoxy-1-(3-(trifluoromethyl)phenyl)ethyl)-D-prolinamide,1-(((3S)-1-((3-cyano-1-azetidinyl)sulfonyl)-3-piperidinyl)carbonyl)-N-((1S)-2-methoxy-1-(3-(trifluoromethyl)phenyl)ethyl)-D-prolinamide]",1.3405
25,"CCS(=O)(=O)c1cc(C(=O)N2[C@@H](C(=O)N[C@@H](c3cc(F)c(Cl)cc3F)C3CC3)C[C@H]3C[C@H]32)ccn1 [Example 389, (1R,3R,5R)-N-((R)-(4-chloro-2,5-difluorophenyl)(cyclopropyl)methyl)-2-((2-(ethylsulfonyl)-4-pyridinyl)carbonyl)-2-azabicyclo[3.1.0]hexane-3-carboxamide]",1.2325
26,"N#CC1CN(S(=O)(=O)N2CCC[C@H](C(=O)N3CCC[C@@H]3C(=O)NCc3cc(Cl)cc(Cl)c3)C2)C1 [Example 390, 1-(((3S)-1-((3-cyano-1-azetidinyl)sulfonyl)-3-piperidinyl)carbonyl)-N-(3,5-dichlorobenzyl)-D-prolinamide]",1.3495
27,"C[C@@H](NC(=O)[C@H]1CCCN1C(=O)[C@H]1CCCN(S(=O)(=O)N2CC(C#N)C2)C1)c1cc(F)cc(F)c1 [Example 391, 1-(((3S)-1-((3-cyano-1-azetidinyl)sulfonyl)-3-piperidinyl)carbonyl)-N-((1R)-1-(3,5-difluorophenyl)ethyl)-D-prolinamide]",1.3505
